Reference: patent publication US20250099448A1, “HETEROCYCLIC COMPOUNDS” (Hoffmann-La Roche Inc., priority 2022, published 2025)

The molecules below were run against T1, MAGL protein (Homo sapiens, UniProt Q99685) (assay: 2-AG assay: MAGL inhibitory activity by hydrolysis of 2-arachidonoylglycerol to arachidonic acid, followed by mass spectrometry). Settings: 8 μM 2-arachidonoylglycerol, 15 min preincubation, 30 min reaction at RT, RapidFire MS readout.
T1 sequence (Q99685 1-303): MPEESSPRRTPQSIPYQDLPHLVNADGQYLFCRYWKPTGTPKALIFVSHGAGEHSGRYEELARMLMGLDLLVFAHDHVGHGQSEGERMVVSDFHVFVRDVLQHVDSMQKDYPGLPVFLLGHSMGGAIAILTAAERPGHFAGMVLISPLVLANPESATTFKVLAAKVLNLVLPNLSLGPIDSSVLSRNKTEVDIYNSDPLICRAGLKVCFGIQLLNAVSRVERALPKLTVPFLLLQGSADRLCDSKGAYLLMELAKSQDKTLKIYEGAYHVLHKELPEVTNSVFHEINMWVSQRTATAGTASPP
Type: biochemical
Procedure, shortened: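 Activity was measured by RapidFire SPE–triple-quad MS as the ratio of arachidonic acid to d8-arachidonic acid after 2-AG hydrolysis (8 μM substrate, 30 min, RT, acetonitrile quench). Compounds, tested from 12.5 μM down to […], were first preincubated 15 min with MAGL in TRIS/EDTA/Tween-20 buffer containing 2.5% DMSO.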
O=C(N1CC2(CC(c3nnc(C4CC4)[nH]3)C2)C1)N1CC2(C1)CN(C(=O)C(F)(F)F)C2 [Example 217, 1-[2-[6-(5-cyclopropyl-4H-1,2,4-triazol-3-yl)-2-azaspiro[3.3]heptane-2-carbonyl]-2,6-diazaspiro[3.3]heptan-6-yl]-2,2,2-trifluoro-ethanone] gave an IC50 of 3580 nM. With CNc1ccc(C(=O)N2CCN(C(=O)N3CC4(CC(c5nnc(C6CC6)[nH]5)C4)C3)CC2)cc1 [Example 871, [4-[6-(5-cyclopropyl-4H-1,2,4-triazol-3-yl)-2-azaspiro[3.3]heptane-2-carbonyl]piperazino]-[4-(methylamino)phenyl]methanone] the IC50 was 342 nM. For O=C(N1CC2(CC(Cc3cc(C(F)(F)F)nn3CC(F)(F)F)C2)C1)N1CC2(CC(c3nc(C4CC4)n[nH]3)C2)C1 [compound 679], the IC50 was 0.15 nM. In the case of O=C(N1CC2(CC(c3nc(C4CC4)n[nH]3)C2)C1)N1CC2(CN(Cc3nc(C4(C(F)(F)F)CC4)no3)C2)C1 [compound 959], the IC50 is reported as 7.44 nM. With Cc1nc(CN2CC3(C2)CN(C(=O)N2CC4(CC(c5nnc(C6CC6)[nH]5)C4)C2)C3)cs1 [compound 896] the IC50 was 209 nM. In the case of O=C(N1CC2(CC(c3nnc(C4CC4)[nH]3)C2)C1)N1CC2(CN(Cc3cnn4ccccc34)C2)C1 [compound 887], the IC50 is reported as 5.98 nM. O=C(N1CC(C23CC(Oc4cnc(C(F)(F)F)cn4)(C2)C3)C1)N1CC2(CC(c3nc(C4(O)CC4)n[nH]3)C2)C1 [compound 552] was tested, and the IC50 was 26.2 nM. COc1cc(C#N)ccc1COC1CCN(C(=O)N2CC3(CC(c4nnc(C5CC5)[nH]4)C3)C2)CC1 [Example 861] showed an IC50 of 59.6 nM. O=C(N1CC2(CC(Cc3ccc(S(=O)(=O)C(F)(F)F)cn3)C2)C1)N1CC2(CC(c3nc(C4(O)CC4)n[nH]3)C2)C1 [compound 616] showed an IC50 of 1.01 nM. For CS(=O)(=O)c1cc(C(F)(F)F)ccc1OCC1CCN(C(=O)N2CC3(CC(c4nc(C5(O)CC5)n[nH]4)C3)C2)CC1 [Example 919, [6-[3-(1-hydroxycyclopropyl)-1H-1,2,4-triazol-5-yl]-2-azaspiro[3.3]heptan-2-yl]-[4-[[2-mesyl-4-(trifluoromethyl)phenoxy]methyl]piperidino]methanone], the IC50 was 1200 nM. Work on O=C(N1CC(C23CC(COc4cc(C(F)(F)F)ccn4)(C2)C3)C1)N1CC2(CC(c3nc(C4CC4)n[nH]3)C2)C1 [compound 942] yielded an IC50 of 1.32 nM. Molecule N=S(=O)(c1ccc(C2CN(C(=O)N3CC4(CC(c5nc(C6CC6)n[nH]5)C4)C3)C2)cc1)C(F)(F)F (stereo not shown) [compound 638] has an IC50 of 0.52 nM. With O=C(N1CC(C23CC(C(F)(F)c4ccc(C(F)(F)F)cc4)(C2)C3)C1)N1CC2(CC(c3nc(C4CC4)n[nH]3)C2)C1 [compound 798] the IC50 was 2.4 nM. O=C(N1CC2(CCC(Oc3ncc(C(F)(F)F)cn3)CC2)C1)N1CC2(CC(c3nnc(C4CC4)[nH]3)C2)C1 [compound 134] was tested, and the IC50 was 1.89 nM. Molecule O=C(N1CC(c2cnc(C3(C(F)(F)F)CC3)nc2)C1)N1CC2(CC(c3nnc(C4CC4)[nH]3)C2)C1 [compound 235] has an IC50 of 21.9 nM. Molecule O=C(N1CC2(CC(Cn3cc(C(F)(F)F)ccc3=O)C2)C1)N1CC2(CC(c3nc(C4CC4)n[nH]3)C2)C1 [compound 406] has an IC50 of 1.75 nM. Molecule N=S(=O)(c1cnn(CC2CC3(C2)CN(C(=O)N2CC4(CC(c5nc(C6CC6)n[nH]5)C4)C2)C3)c1)C(F)(F)F (stereo not shown) [compound 950] has an IC50 of 3.03 nM. In the case of O=C(N1CC(c2ccc(N3CC(C(F)(F)F)C3)cc2)C1)N1CC2(CC(c3nnc(C4(O)CC4)[nH]3)C2)C1 [compound 262], the IC50 is reported as 1.96 nM. Molecule O=C(N1CC(c2cnc(N3CC(C(F)(F)F)C3)nc2)C1)N1CC2(CC(c3nnc(C4CC4)[nH]3)C2)C1 [compound 263] has an IC50 of 8.21 nM. O=C(N1CC2(CC(Cc3cncc(S(=O)(=O)C(F)(F)F)c3)C2)C1)N1CC2(CC(c3nc(C4(O)CC4)n[nH]3)C2)C1 [compound 560] gave an IC50 of 1.25 nM. N#Cc1cc(F)ccc1C12CC(C3CN(C(=O)N4CC5(CC(c6nc(C7CC7)n[nH]6)C5)C4)C3)(C1)C2 [compound 463] showed an IC50 of 0.56 nM. With O=C(N1CC(NCc2ccc(C(F)(F)F)cc2F)C1)N1CC2(CC(c3nnc(C4(O)CC4)[nH]3)C2)C1 [compound 198] the IC50 was 177 nM. For O=C(N1CC2(CC(c3nnc(C4CC4)[nH]3)C2)C1)N1CC2(C1)CN(c1ncc(C(F)(F)F)cc1F)C2 [compound 678], the IC50 was 33.9 nM. With NS(=O)(=O)c1ccccc1CN1CC2(C1)CN(C(=O)N1CC3(CC(c4nnc(C5CC5)[nH]4)C3)C1)C2 [compound 170] the IC50 was 28.1 nM. For O=C(N1CC2(CC(Cc3ncc(F)cc3F)C2)C1)N1CC2(CC(c3nnc(C4(O)CC4)[nH]3)C2)C1 [compound 116], the IC50 was 2.39 nM. O=C(N1CC2(CC(CNC3(C(F)(F)F)CC3)C2)C1)N1CC2(CC(c3nnc(C4CC4)[nH]3)C2)C1 [compound 54] gave an IC50 of 2.8 nM. O=C(N1CC2(CC(Cc3cnn(C(F)(F)F)c3)C2)C1)N1CC2(CC(c3nc(C4CC4)n[nH]3)C2)C1 [compound 401] showed an IC50 of 0.4 nM. O=C(N1CC(C23CC(Cn4cc(C(F)(F)F)cn4)(C2)C3)C1)N1CC2(CC(c3nc(C4CC4)n[nH]3)C2)C1 [compound 949] gave an IC50 of 0.16 nM. In the case of O=C(N1CC2(CC(Oc3cncc(C(F)(F)F)n3)C2)C1)N1CC2(CC(c3nnc(C4CC4)[nH]3)C2)C1 [compound 133], the IC50 is reported as 1.73 nM. Work on O=C(N1CC2(CC(Nc3ccc(C(F)(F)F)nn3)C2)C1)N1CC2(CC(c3nnc(C4CC4)[nH]3)C2)C1 [compound 57] yielded an IC50 of 25.7 nM. CS(=O)(=O)c1cc(Cl)ccc1CC1CC2(CCN(C(=O)N3CC4(CC(c5nnc(C6CC6)[nH]5)C4)C3)C2)C1 (stereo not shown) [Example 892, [2-(4-chloro-2-mesyl-benzyl)-6-azaspiro[3.4]octan-6-yl]-[6-(5-cyclopropyl-4H-1,2,4-triazol-3-yl)-2-azaspiro[3.3]heptan-2-yl]methanone] was tested, and the IC50 was 12.3 nM. In the case of O=C(N1CC(c2ccc(N3CC4(CCOC4)C3)nc2)C1)N1CC2(CC(c3nnc(C4CC4)[nH]3)C2)C1 [compound 290], the IC50 is reported as 21 nM. O=C(N1CCC(C23CC(c4nnc(C5(C(F)(F)F)CC5)o4)(C2)C3)CC1)N1CC2(CC(c3nc(C4(O)CC4)n[nH]3)C2)C1 [compound 706] showed an IC50 of 280 nM. Molecule O=C(N1CC2(CC(NS(=O)(=O)c3ccccc3C(F)(F)F)C2)C1)N1CC2(CC(c3nnc(C4CC4)[nH]3)C2)C1 [compound 224] has an IC50 of 0.7 nM. O=C(N1CC2(CC(Cc3ncc(C(F)(F)F)cc3F)C2)C1)N1CC2(CC(c3ncn[nH]3)C2)C1 [compound 620] showed an IC50 of 187 nM. With N#Cc1ncc(CC2CC3(C2)CN(C(=O)N2CC4(CC(c5nc(C6(F)CC6)n[nH]5)C4)C2)C3)cc1C(F)(F)F [compound 512] the IC50 was 0.67 nM. Work on O=C(N1CC2(CC(Cc3ccc4cnc(C(F)(F)F)n4c3)C2)C1)N1CC2(CC(c3nc(C4CC4)n[nH]3)C2)C1 [compound 992] yielded an IC50 of 0.16 nM. With O=C(N1CC2(CCC(OCC3(C(F)(F)F)CC3)CC2)C1)N1CC2(CC(c3nnc(C4CC4)[nH]3)C2)C1 [compound 65] the IC50 was 1.46 nM. Molecule O=C(N1CC(C23CC(c4ccc(OC(F)(F)F)cc4)(C2)C3)C1)N1CC2(CC(c3nc(C4CC4)n[nH]3)C2)C1 [compound 490] has an IC50 of 0.05 nM. O=C(N1CC2(CC(c3nc(C4CC(F)(F)C4)n[nH]3)C2)C1)N1CC2(CN(Cc3cc(C(F)(F)F)ns3)C2)C1 [compound 561] gave an IC50 of 1450 nM. With CS(=N)(=O)c1cc(CC2CC3(C2)CN(C(=O)N2CC4(CC(c5nc(C6CC6)n[nH]5)C4)C2)C3)cc(C(F)(F)F)c1 (stereo not shown) [compound 660] the IC50 was 0.79 nM. With O=C(N1CC2(CC(Oc3cnc(C(F)(F)F)cn3)C2)C1)N1CC2(CC(c3nnc(C4(O)CC4)[nH]3)C2)C1 [compound 76] the IC50 was 38 nM. O=C(N1CC(c2ccc(N3CC[C@@H](C(F)(F)F)C3)nc2)C1)N1CC2(CC(c3nnc(C4CC4)[nH]3)C2)C1 [compound 268] gave an IC50 of 0.35 nM. In the case of N=S(=O)(c1ccc(CC2CC3(C2)CN(C(=O)N2CC4(CC(c5nc(C6CC6)n[nH]5)C4)C2)C3)c(F)c1)C(F)(F)F (stereo not shown) [compound 849], the IC50 is reported as 0.07 nM. O=C(N1CC2(CC(Cc3ccc(OC(F)(F)F)nc3)C2)C1)N1CC2(CC(c3nc(C4CC4)n[nH]3)C2)C1 [compound 501] was tested, and the IC50 was 0.92 nM. Molecule O=C(N1CCC(c2nn(C[C@@H](O)C(F)(F)F)c3ccc(Cl)cc23)CC1)N1CC2(CC(c3nnc(C4CC4)[nH]3)C2)C1 [Example 865, [4-[5-chloro-1-[(2R)-3,3,3-trifluoro-2-hydroxy-propyl]indazol-3-yl]piperidino]-[6-(5-cyclopropyl-4H-1,2,4-triazol-3-yl)-2-azaspiro[3.3]heptan-2-yl]methanone] has an IC50 of 19.4 nM. Work on O=C(N1CC2(CC(Cc3cccc(S(=O)(=O)C(F)(F)F)c3)C2)C1)N1CC2(CC(c3nc(C4CC(F)(F)C4)n[nH]3)C2)C1 [compound 604] yielded an IC50 of 6.89 nM. O=C(N1CC2(CC(c3nnc(C4CC4)[nH]3)C2)C1)N1CC2(CCN(Cc3cnc(C(F)(F)F)cn3)C2)C1 [compound 184] gave an IC50 of 11.7 nM. O=C(N1CC(C23CC(c4nnc(C5CC5)o4)(C2)C3)C1)N1CC2(CC(c3nnc(C4CC4)[nH]3)C2)C1 [compound 345] gave an IC50 of 9.15 nM. With O=C(N1CC2(CC(Cn3cnc(C4(C(F)(F)F)CC4)c3)C2)C1)N1CC2(CC(c3nc(C4CC4)n[nH]3)C2)C1 [compound 860] the IC50 was 2.9 nM. Molecule NC(=O)c1cc(Cl)cnc1OCC1CCN(C(=O)N2CC3(CC(c4nc(C5CC5)n[nH]4)C3)C2)CC1 [Example 899] has an IC50 of 100 nM. In the case of NC(=O)[C@@H]1CCCCN1c1ccc(C2CN(C(=O)N3CC4(CC(c5nnc(C6CC6)[nH]5)C4)C3)C2)cc1 [Example 394, (2S)-1-[4-[1-[6-(5-cyclopropyl-4H-1,2,4-triazol-3-yl)-2-azaspiro[3.3]heptane-2-carbonyl]azetidin-3 yl]phenyl]piperidine-2-carboxamide], the IC50 is reported as 1.49 nM.
